Columns and labels:
F-actin = test: FITC-phalloidin staining of F-actin and flow cytometry in resting CD4 T cells; assay type: cell-based, human
Experimental: Cells were stimulated with HIV-1 or gp120 IIIB (Microbix Biosystems Inc. Toronto, Ontario). F-actin staining using FITC-labeled phalloidin (Sigma, St. Louis, Mo.) was carried out according to the manufacture's recommendation with minor modifications. Briefly, each staining was carried out by using 10^6 cells. Cells were pelleted, fixed and permeabilized with cytoperm/cytofix (BD biosciences, San Diego, Calif.) for 20 min on ice, followed by stained with 5 μl of 0.3 uM FITC-labeled phalloidin for 30 min at 4° C. After wash, cells were resuspended in 1% paraformaldehyde and analyzed on FACSCalibur (BD Biosciences, San Jose, Calif.)

HIV-1 = HIV-1 latent infection of resting CD4 T cells, viral replication assay (p24 ELISA) after anti-CD3/CD28 activation; assay type: cell-based, HIV-1NL4-3; settings: for HIV replication in resting T cells: 5 minutes before infection
Experimental: Virus stocks of the HIV-1NL4-3 (Adachi et al. J Virol 59(2), 284-91 (1986)) were prepared by transfection of HeLa cells with cloned proviral DNA as described in Wu and Marsh (2001). Supernatant was harvested at 48 hours, and filtered through a 0.45 μm nitrocellulose membrane. Virus titer (TCID50) was measured by infection of a Rev-CEM indicator cell line which was constructed through stable integration of a Rev-dependent GFP expression lentiviral vector into CEM-SS. […] For infection of resting CD4 T cells, viruses were first titrated to determine minimal levels detectable by p24 ELISA in replication assays described below. Unless specified, for most replication assays, 10^3.5 to 10^4.5 TCID50 units of HIV-1 were used to infect 10^6 cells. For infection procedure, CD4 T cells were incubated with the virus for 2 hours, then washed twice with medium to remove unbound virus. Infected cells were resuspended into fresh RPMI 1604 medium supplemented with 10% heat-inactivated fetal bovine serum, penicillin (50 U/ml) and streptomycin (50 μg/ml) at a density of 10^6 per ml and incubated for 5 days without stimulation. Cells were activated at day 5 with anti-CD3/CD28 magnetic beads at 4 beads per cells. For viral replication assay, 10% of infected cells were taken at 1, 3, 5, 6, 7, 8, 9 days post infection. Cells were pelleted and the supernatant was saved for p24 ELISA. Levels of p24 in the supernatant were measured by using Coulter HIV-1 p24 Assay Kit (Beckman Coulter, Inc. Miami, Fla.). Plates were kinetically read using ELx808 automatic microplate reader (Bio-Tek Instruments, Inc. Winooski, Vt.) at 630 nm.
Resting CD4 T cells were treated with pertussis toxin (Sigma, St. Louis, Mo.) at a final concentration of 100 ng/ml for 2 hours, then infected with HIV-1. Following infection, cells were washed 2 to 3 times to remove cell-free virus and the inhibitor. Cells were treated with Jasplakinolide (Molecular Probes, Eugene, Oreg.) for 1 to 2 hours or Latrunculin A (Biomol, Plymouth Meeting, Pa.) for 5 minutes at various concentrations, washed twice with medium, then infected with HIV-1. Following infection, cells were washed twice to remove cell free virus. Cells were treated with 200 nM of Staurosporine (Biomol, Plymouth Meeting, Pa.) for 2 hours, then infected with HIV-1. Following infection, cells were washed twice to remove cell-free virus and the inhibitor.
Resting CD4 T cells were treated with S3 or Q104 for I to 2 hours, then infected with HIV-1. Following infection, cells were washed 2 to 3 times to remove cell-free virus and the peptides.
Effects of Jas on LFA-1 activation also were tested. Jas treated or untreated resting T cells were activated by anti-CD3/CD28 bead and stained with human ICAM-1/Fc chimera and analyzed by flow cytometer. The effects of Jas on IL-2 secretion also were measured. […] Cells were treated with Jas for 2 hours, washed, infected with HIV-1 for 5 days, then activated by anti-CD3/CD28 bead. […] Following infection, cellular DNA was PCR amplified for viral late DNA and β-actin pseudogene. Cells were pre-activated with PHA plus IL-2, then treated and infected as in FIG. 3A. […] CEM-SS cell were treated and infected as in FIG. 3A.

LIMK1 = target: T1, LIMK1 (Homo sapiens, UniProt P53667); test: In vitro LIMK1 kinase assay with GST-tagged recombinant human cofilin; assay type: biochemical
T1 construct: purchased Upstate Biotechnologies, Lake Placid, N.Y
Experimental: LIMK1 Kinase assays were performed using purified LIMK1 and GST-tagged recombinant human cofilin (Upstate Biotechnologies, Lake Placid, N.Y.) according to the manufacture's recommendation with minor modifications. Briefly, 18 μg of recombinant cofilin was incubated in 1× Kinase reaction buffer ([…], pH7.0, 200 μM EDTA) in the presence or absence of Staurosporine (200 nM) or the S3, Q104 peptides. LIMK1 was serially diluted in dilution buffer (20 mM MOPS-NaOH pH 7.0, 1 mM EDTA, 0.01% Brij-35, 5% glycerol, 0.1% 2-ME, 1 mg/ml BSA), then added into the reaction along with the ATP buffer (10 mM Magnesium Acetate, 100 μM ATP). The reaction was incubated for 15 minutes at 30° C. with constant agitation. The reaction was stopped by adding 25% (V/V) of 4×LDS sample buffer for SDS-PAGE and heated for 10 minutes at 70° C. Cofilin phosphorylation was analyzed by SDS-PAGE and western blotting using a rabbi anti-phospho-cofilin (ser3) antibody (Cell Signaling, Danvers, Mass.) as described in Example 10.

cofilin = test: Cofilin and phospho-cofilin western blot in resting CD4 T cells; assay type: cell-based, human
Experimental: For activation of resting CD4 T cells with PHA (3 μg/ml) (Sigma, St. Louis, Mo.) plus IL-2 (100 U/ml) (Roche Applied Science, Indianapolis, Ind.), cells were cultured in the presence of these agents for 1 day.
Briefly, 10^6 of CD4 T cells were lysed in NuPAGE LDS Sample Buffer (Invitrogen, Carlsbad, Calif.) followed by sonication. Samples were heated at 70° C. for 10 minutes before loading, then separated by SDS-PAGE and transferred onto nitrocellulose membranes (Invitrogen, Carlsbad, Calif.). The membranes were washed in TBS for 5 minutes and then blocked for 30 minutes at room temperature with Starting Block blocking buffer (Pierce, Rockford, Ill.). The blots were incubated with either a rabbit anti-cofilin antibody (1:1000 dilution) (Cell Signaling, Danvers, Mass.) or a rabbit anti-phospho-cofilin (ser3) antibody (1:1000 dilution) (Cell Signaling, Danvers, Mass.) diluted in 5% BSA-TBST and rocked at room temperature for 1 hour. The blots were washed three times for 15 minutes each and then incubated with a goat anti-rabbit horseradish peroxidase-conjugated antibodies (KPL, Inc. Gaithersburg, Md.) diluted in 2.5% skim milk-TBST (1:1000) for 1 hour. […] Images were captured with a CCD camera (Fluor Chem 9900 Imaging Systems) (Alpha Innotech, San Leandro, Calif.) and analyzed and processed by NIH-Image Version 163.

IL-2 secretion = test: IL-2 ELISA of cell culture supernatant after T cell activation; assay type: cell-based, human; settings: 200 nM, treated, incubated and activated
Experimental: IL-2 release into cell culture supernatant was detected by a human IL-2 ELISA development kit (PeproTech, Rocky Hill, N.J.) according to the manufacture's instruction. Briefly, each well of a plate was coated with 100 μl of capture antibody (1 μg/ml) and incubated overnight at room temperature, then washed and blocked with 300 μl of blocking solution for one hour at room temperature. Samples in plates were incubated for 1 hour at 37° C., then washed and incubated with 100 μl of detection antibody (0.5 μg/ml) for 1 hour at 37° C. Plates were washed and incubated with 100 μl of the avidin-peroxidase conjugate (1:2000 dilution) for 30 minutes at room temperature followed by washing and incubation with 100 μl of Tetramethylbenzidine (TMB) substrate buffer. Plates were kinetically read using ELx808 automatic microplate reader (Bio-Tek Instruments, Inc. Winooski, Vt.) at 630 nm.

HIV = settings: Doranz et al. 1999; cited from earlier work
[1] = 200 nM added during T cell activation at day 5

T1 sequence (P53667 whole entry, species assumed): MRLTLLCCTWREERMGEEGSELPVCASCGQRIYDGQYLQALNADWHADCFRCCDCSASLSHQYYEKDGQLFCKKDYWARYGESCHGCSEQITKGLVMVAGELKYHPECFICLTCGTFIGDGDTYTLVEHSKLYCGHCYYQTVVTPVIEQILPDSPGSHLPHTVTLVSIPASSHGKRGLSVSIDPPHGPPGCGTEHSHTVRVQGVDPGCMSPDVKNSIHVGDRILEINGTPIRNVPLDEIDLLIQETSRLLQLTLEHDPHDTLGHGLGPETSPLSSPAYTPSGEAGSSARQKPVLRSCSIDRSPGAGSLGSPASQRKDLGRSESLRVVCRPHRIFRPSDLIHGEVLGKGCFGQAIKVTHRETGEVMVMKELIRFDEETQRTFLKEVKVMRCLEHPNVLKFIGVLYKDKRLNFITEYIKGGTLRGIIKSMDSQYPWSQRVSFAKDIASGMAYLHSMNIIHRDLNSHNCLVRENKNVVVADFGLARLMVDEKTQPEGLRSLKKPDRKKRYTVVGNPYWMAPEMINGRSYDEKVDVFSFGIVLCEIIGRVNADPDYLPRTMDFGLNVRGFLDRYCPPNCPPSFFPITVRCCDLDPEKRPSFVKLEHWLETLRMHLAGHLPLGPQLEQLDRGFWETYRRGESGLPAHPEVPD

## SDF-1: the natural ligand for CXCR4
F-actin; 50 ng/ml
  F-actin change: rapid actin polymerization

## C/C1=C/C(=O)O[C@@H]2C[C@@H](CC[C@H](C)/C=C\C=C\CC1)O[C@@](O)([C@@H]1CSC(=O)N1)C2 [Lat-A, Latrunculin A]
HIV-1; 25 nM, 5 minutes
  HIV replication in resting T cells, treatment before vs after infection: enhancement was seen only in cells pretreated with Lat-A prior to infection
HIV-1; 25 nM
  HIV replication in resting T cells: Enhanced HIV replication
HIV-1; 250 nM
  HIV replication in resting T cells: donor-dependent variations from enhancement to inhibition
HIV-1; 2.5 μM
  HIV replication in resting T cells: inhibited viral replication in all donors
F-actin; 25 nM, 5 min
  actin depolymerization: actin depolymerization to an extent similar to that induced by HIV-1
F-actin; 2.5 μM to 250 nM, 5 min
  actin depolymerization: dramatic actin depolymerization

## S3: Synthetic peptide MASGVAVSDGVIKVFN (SEQ ID NO: 3), N-terminal 16 amino acids of human cofilin
HIV-1; pre-treated 2 hours, then infected
  viral replication in resting CD4 T cells: enhanced viral replication
LIMK1; peptide
  cofilin phosphorylation by LIMK1: inhibited cofilin phosphorylation

## CN[C@@H]1C[C@H]2O[C@@](C)([C@@H]1OC)n1c3ccccc3c3c4c(c5c6ccccc6n2c5c31)C(=O)NC4 [staurosporine]
cofilin; 200 nM, no stimulation
  cofilin phosphorylation in resting CD4 T cells: gradual dephosphorylation and activation of cofilin
HIV-1; [1]
  HIV-1 replication: completely abolished HIV-1 replication
  T cell activation: inhibited T cell activation
HIV-1; 200 nM briefly before infection
  HIV replication in resting CD4 T cells: dramatic enhancement
IL-2 secretion
  IL-2 secretion: slight inhibition
F-actin; 200 nM
  actin depolymerization: actin depolymerization also was observed
LIMK1; 200 nM
  LIMK1 inhibition compared with S3 peptide: much stronger
  phosphorylation of cofilin by LIMK1: directly inhibited

## pertussis toxin [P.T]
cofilin; pretreated, then infected with HIV-1
  inhibition of HIV-1 induced cofilin activation: Complete inhibition
HIV
  viral replication in CXCR4 transfected U87-MG cells: did not affect viral replication
HIV-1; 100 ng/ml for 2 hours before infection
  viral replication in resting T cells: inhibited viral replication
F-actin; 100 ng/ml for 2 hours, then HIV-1
  inhibition of viral induced actin depolymerization: completely inhibited

Reference: patent publication US7662547B2, “Compositions and methods for detecting and treating HIV infections” (priority 2006, dated 2010)
